According to patent US20230303613A1, “3′3′ CYCLIC DINUCLEOTIDES WITH AN ALKENYLENE” (Institute of Organic Chemistry and Biochemistry AS CR, v.v.i, priority 2020, published 2023):

Columns and labels:
WT STING [1] = molecular target: T1, WT STING (Homo sapiens, UniProt Q86WV6, H232R); assay: Differential Scanning Fluorimetry with WT STING; format: binding; design: 8xHis (N, cleaved yes); SUMO (N, cleaved yes); made in house; host or cells: E. coli Rosetta-gami B (DE3); settings: thermal shift vs apoprotein, 150 µM CDN, truncated human WT STING 0.1 mg/ml; for ΔTm at 150 µM: read-out: DSF ΔTm WT STING
Source text: (§1) Purified PCR products were cleaved with restriction enzymes BamHI (cat. # R0136S, NEB, Ipswich, USA) and NotI (cat. # R0189S, NEB, Ipswich, USA) and cloned into the pSUMO vector linearized with the identical enzymes.
(§2) Bacterial pellets were re-suspended in ice-cold lysis buffer containing 50 mmol.1^-1 TrisCl (cat. # T1503, Sigma Aldrich, Czech Republic) pH 8.0, 300 mmol.1^-1 NaCl, 3 mmol.1^-1 β-mercaptoethanol (cat. # M6250, Sigma Aldrich, Czech Republic), 10% glycerol (cat. # G5516, Sigma Aldrich, Czech Republic) and 20 mmol.1^-1 imidazole (cat. # I5513, Sigma Aldrich, Czech Republic) using Dounce homogenizer. DNase I (cat. # D5025, Sigma Aldrich, Czech Republic) and RNase A (cat. # R6513, Sigma Aldrich, Czech Republic) were added (final concentration 50 µg/ml) together with MgCl2 (final concentration 5 mmol.l^-1) to the homogenate and bacteria were lysed using French Press G-M™ High-Pressure Cell Press Homogenizer (1500 psi, 3 cycles). […] The resin was poured into a chromatography column, washed with 50 ml buffer A (50 mmol.1^-1 TrisCl (pH 8.0), 800 mmol.1^-1 NaCl, 3 mmol.1^-1 β-mercaptol; 10% glycerol; 20 mmol.1^-1 imidazole) and 8-His-SUMO tagged STING proteins were eluted with 15 ml buffer A containing 300 mmol.1^-1 imidazole. […] Proteins were concentrated with Amicon® Ultra-15 10 K device (cat. # UFC901008, Merck Millipore, Billerica, USA) and flash frozen in liquid N2.
(§3) 20 µL solutions of the reaction mixtures were pipetted in triplicates into 96 well optical reaction plates and thermal denaturation of samples were performed on real time PCR cycler (LightCycler® 480 Instrument II - Roche, Basel, Switzerland). The first derivative of the thermal denaturation curves was performed to calculate denaturing temperatures of STING - CDN complexes and STING apoproteins. The thermal shift for each CDN was calculated by subtracting the average denaturing temperature of STING apoprotein from the average denaturing temperature of STING CDN complex.
Target sequence in this assay (Q86WV6 140-343 H232R): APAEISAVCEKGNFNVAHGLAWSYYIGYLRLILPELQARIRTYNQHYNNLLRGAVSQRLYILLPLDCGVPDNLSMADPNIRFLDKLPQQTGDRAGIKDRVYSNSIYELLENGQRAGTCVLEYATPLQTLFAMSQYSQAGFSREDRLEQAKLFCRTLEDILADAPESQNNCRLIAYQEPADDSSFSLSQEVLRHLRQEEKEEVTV

WT STING [2] = molecular target: T1, WT STING; assay: Digitonin assay using 293T wtSTING-FL reporter cells; format: cell-based; settings: 293T wtSTING-FL cells; 30 minutes in Digitonin buffer, then 5 hours; ISRE firefly luciferase reporter
Source text: (§4) Two complementary oligonucleotides of the sequence […] […] […] […] […] The oligonucleotides were mixed in equal molar amounts, hybridized, and cleaved by restriction endonucleases HindIII (cat. #. R0104S, NEB, Ipswich, USA) and BglII (cat. # R0144S, NEB, Ipswich, USA). Ultimately, they were ligated into plasmid pGL4.27 (cat. # E6651, Promega, Madison, USA) linearized with the same enzymes. As result the sequence with four ISRE sites was placed upstream of the minimum promoter of firefly luciferase reporter gene.
(§5) After 5 minutes incubation at room temperature (RT), 250 µL of the mixture was added dropwise to the cells in one well. Cells were incubated 36 hours at 37° C. with 5% CO2, and then detached with 0.05% Trypsin and 0.22 g/L EDTA (both cat. # L0941, Biowest, Riverside, USA).
(§6) Transfected cells were seeded onto poly-D-lysine coated six well plates at density 50,000 cells per 1 cm^2 in DMEM medium with high glucose containing 10% heat inactivated FBS, 30 µg/mL blasticidin (cat. # ant-bl-05, InvivoGen, San Diego, USA), 0.06 mg/ml Penicillin G and 0.1 mg/ml Streptomycin Sulfate (both cat. #. L0018, Biowest, Riverside, USA). The medium was replenished every 3 - 4 days until visible colonies of cells resistant to blasticidin were formed.
(§7) Blasticidin resistant cells stably expressing WT STING were further transfected with […] plasmid following the same procedure as described above. […] Homogeneous culture of stably double transfected cells was prepared by limiting dilution of cells in 96 well plates and wells with cells were selected that originated from a single cell.
The medium was removed next day and three fold serial dilutions of compounds in Digitonin buffer containing 50 mmol.l^-1 HEPES (cat. # H3375, Sigma Aldrich, Czech Republic) pH 7.0, 100 mmol.1^-1 KCl, 3 mmol.l^-1 MgCl2, 0.1 mmol.l^-1 DTT (cat. # D0632, Sigma Aldrich, Czech Republic), 85 mmol.1^-1 Sucrose (cat. # S7903, Sigma Aldrich, Czech Republic), 0.2% BSA (cat. # A2153, Sigma Aldrich, Czech Republic), 1 mmol.l^-1 ATP (cat. # A1852, Sigma Aldrich, Czech Republic), 0.1 mmol.1^-1 GTP (cat. # G8877, Sigma Aldrich, Czech Republic), and 10 µg/mL Digitonin A (cat. # D141, Sigma Aldrich, Czech Republic) were added to the cells. The buffer was removed after 30 minutes incubation at 37° C. with 5% CO2, the cells were washed once with 100 µl of cultivation medium, and 100 µl of medium was added to each well. The plates with cells were incubated for 5 hours at 37° C. with 5% CO2, 50µl of the medium was removed and 30 µl of ONE-Glo^Tm Luciferase Assay System reagent (cat. # E6120, Promega, Madison, USA) was added to each well. Luminescence was read on Synergy H1 (Biotek, Winooski, USA).
Target sequence in this assay (Q86WV6 whole entry H232R, the tested form may be a part): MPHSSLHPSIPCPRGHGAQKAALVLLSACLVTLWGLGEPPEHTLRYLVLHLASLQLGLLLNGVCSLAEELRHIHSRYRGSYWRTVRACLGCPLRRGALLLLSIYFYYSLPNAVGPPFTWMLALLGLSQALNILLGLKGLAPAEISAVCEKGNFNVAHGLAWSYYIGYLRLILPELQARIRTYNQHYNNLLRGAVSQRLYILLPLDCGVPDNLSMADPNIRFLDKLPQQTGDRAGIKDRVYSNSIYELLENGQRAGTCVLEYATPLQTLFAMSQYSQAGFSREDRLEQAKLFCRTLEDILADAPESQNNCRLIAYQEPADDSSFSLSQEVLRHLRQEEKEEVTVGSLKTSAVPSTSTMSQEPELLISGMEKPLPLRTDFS

WT STING [3] = molecular target: T1, WT STING; assay: 293T WT STING standard reporter assay; format: cell-based; settings: 293T wtSTING-FL cells; 7 hours with compound, no digitonin; ISRE firefly luciferase reporter
Source text: as §4, §5, §6, §7
Target sequence in this assay (Q86WV6 whole entry H232R, the tested form may be a part): as above
The medium was removed next day and three-fold serial dilutions of compounds in 100 µl medium were added to the cells. The plates with cells were incubated for 7 hours at 37° C. with 5% CO2. After 50 µl of the medium was removed, 30 µl of ONE-Glo^Tm Luciferase Assay System reagent (cat. # E6120, Promega, Madison, USA) was added to each well and luminescence was read on Synergy H1 (Biotek, Winooski, USA).

AQ STING (G230A-R293Q) = molecular target: T2, AQ STING (G230A-R293Q) (Homo sapiens, UniProt Q86WV6, G230A/H232R/R293Q); assay: Differential Scanning Fluorimetry with AQ STING; format: binding; settings: thermal shift vs apoprotein, 150 µM CDN, truncated human AQ STING 0.1 mg/ml; for ΔTm at 150 µM: read-out: DSF ΔTm AQ STING
T2 construct: 8xHis (N, cleaved yes); SUMO (N, cleaved yes); made in house; host or cells: E. coli Rosetta-gami B (DE3)
Source text: as §1, §2, §3

T2 sequence (Q86WV6 140-343 G230A/H232R/R293Q): as the sequence (Q86WV6 140-343 H232R) above, with G91A, R154Q counted along it

DSF ΔTm WT STING (WT STING [1]) | EC50 (WT STING [2]) | EC50 (WT STING [3]) | DSF ΔTm AQ STING (AQ STING (G230A-R293Q)) | ΔTm at 150 µM (WT STING [1]) | ΔTm at 150 µM (AQ STING (G230A-R293Q)) | SMILES
11.5 °C | 30 nM | 10200 nM | 19.4 °C |  |  | Nc1nc2c(ncn2[C@@H]2O[C@@H]3COP(=O)(O)O[C@@H]4[C@H](O)[C@@H](COP(=O)(O)O[C@@H]2[C@@H]3O)O[C@H]4n2cnc3c(N)ncnc32)c(=O)[nH]1 [2′2′-cGAMP, reference compound]
 | 500 nM |  |  | 4.1 °C | 10.6 °C | Nc1nc2c(ncn2[C@@H]2O[C@@H]3/C=C/P(=O)(O)O[C@H]4[C@@H](F)[C@H](n5cnc6c(=O)[nH]c(N)nc65)O[C@@H]4COP(=O)(O)O[C@H]3[C@H]2F)c(=O)[nH]1 [Compound 56, (1R,6R,8R,9R,10R,13E,15R,17R,18R)-8,17-bis(2-amino-6-oxo-6,9-dihydro-1H-purin-9-yl)-9,18-difluoro-3,12-dihydroxy-2,4,7,11,16-pentaoxa-3λ^5,12λ^5-diphosphatricyclo[13.3.0.0^6,^10]octadec-13-ene-X3.12-dione]
2.6 °C | 300 nM |  | 9.3 °C |  |  | Nc1ncnc2c1ncn2[C@@H]1O[C@@H]2COP(=O)(O)O[C@H]3[C@@H](O)[C@H](n4cnc5c(N)ncnc54)O[C@@H]3COP(=O)(O)O[C@H]2[C@H]1O [3′3′c-di-AMP, 3′3′-c-di-AMP, reference compound]
 | 32800 nM |  |  | 1.2 °C | 3.5 °C | Nc1nc(N)c2ncn([C@@H]3O[C@@H]4COP(=O)(O)O[C@H]5[C@@H](O)[C@H](n6cnc7c(=O)[nH]c(N)nc76)O[C@@H]5/C=C\P(=O)(O)O[C@H]4[C@H]3O)c2n1 (stereo in doubt) [Compound 69, (1S,6R,8R,9R,10S,15R,17R,18R)-17-(2-amino-6-oxo-6,9-dihydro-1H-purin-9-yl)-8-(2,6-diamino-9H-purin-9-yl)-3,9,12,18-tetrahydroxy-2,4,7,11,16-pentaoxa-3λ^5,12λ^5-diphosphatricyclo[13.3.0.0^6,^10]octadec-13-ene-3,12-dione]
 | 120 nM |  |  | 6.1 °C | 11.3 °C | Nc1nc2c(ncn2[C@H]2C[C@@H]3OP(=O)(O)/C=C/[C@H]4O[C@@H](n5cnc6c(N)ncnc65)[C@H](F)[C@@H]4OP(=O)(O)OC[C@H]3O2)c(=O)[nH]1 [Compound 57, (1R,6R,8R,10S,13E,15R,17R,18R)-8-(2-amino-6-oxo-6,9-dihydro-1H-purin-9-yl)-17-(6-amino-9H-purin-9-yl)-18-fluoro-3,12-dihydroxy-2,4,7,11,16-pentaoxa-3λ^5,12λ^5-diphosphatricyclo[13.3.0.0^6,^10]octadec-13-ene-3,12-dione]
 | 15000 nM |  |  | 0.5 °C | 1.7 °C | Nc1nc2c(ncn2[C@@H]2O[C@@H]3/C=C\P(=O)(O)O[C@H]4C[C@H](n5cnc6c(N)nc(F)nc65)O[C@@H]4COP(=O)(O)O[C@H]3[C@H]2O)c(=O)[nH]1 [Compound 66, (1S,6R,8R,10S,13Z,15R,17R,18R)-8-(6-amino-2-fluoro-9H-purin-9-yl)-17-(2-amino-6-oxo-6,9-dihydro-1H-purin-9-yl)-3,12,18-trihydroxy-2,4,7,11,16-pentaoxa-3λ^5,12λ^5-diphosphatricyclo[13.3.0.0^6,^10]octadec-13-ene-3,12-dione]
 | 5000 nM |  |  | 3.1 °C | 8 °C | Nc1nc(N)c2ncn([C@@H]3O[C@@H]4COP(=O)(O)O[C@H]5[C@@H](O)[C@H](n6cnc7c(=O)[nH]c(N)nc76)O[C@@H]5/C=C\P(=O)(O)O[C@H]4[C@H]3F)c2n1 [Compound 65, (1S,6R,8R,9R,10R,13Z,15R,17R,18R)-17-(2-amino-6-oxo-6,9-dihydro-1H-purin-9-yl)-8-(2,6-diamino-9H-purin-9-yl)-9-fluoro-3,12,18-trihydroxy-2,4,7,11,16-pentaoxa-3λ^5,12λ^5-diphosphatricyclo[13.3.0.0^6,^10]octadec-13-ene-3,12-dione]
 | 16100 nM |  |  | 0.5 °C | 1.1 °C | CSc1ncnc2c1ncn2[C@@H]1O[C@@H]2COP(=O)(O)O[C@H]3[C@@H](O)[C@H](n4cnc5c(=O)[nH]c(N)nc54)O[C@@H]3/C=C\P(=O)(O)O[C@H]2[C@H]1O (stereo in doubt) [Compound 70, (1S,6R,8R,9R,10S,15R,17R,18R)-17-(2-amino-6-oxo-6,9-dihydro-1H-purin-9-yl)-3,9,12,18-tetrahydroxy-8-[6-(methylsulfanyl)-9H-purin-9-yl]-2,4,7,1 1,16-pentaoxa-3λ^5,12λ^5-diphosphatricyclo[13.3.0.0^6,^10]octadec-13-ene-3,12-dione]
 | 20 nM |  |  | 9.2 °C | 15 °C | Nc1nc2c(ncn2[C@@H]2O[C@@H]3/C=C/P(=O)(O)O[C@H]4[C@@H](F)[C@H](n5cnc6c(N)ncnc65)O[C@@H]4COP(=O)(O)O[C@H]3[C@H]2F)c(=O)[nH]1 [Compound 54, (1R,6R,8R,9R,10R,13E,15R,17R,18R)-17-(2-amino-6-oxo-6,9-dihydro-1H-purin-9-yl)-8-(6-amino-9H-purin-9-yl)-9,18-difluoro-3,12-dihydroxy-2,4,7,11,16-pentaoxa-3λ^5,12λ^5-diphosphatricycl [13.3.0.0^6,^10]octadec-13-ene-3,12-dione]
